Values quoted from earlier work as cited in patent US8211035B2, “System and method for monitoring health using exhaled breath” (University of Florida Research Foundation, Inc., priority 2002, dated 2012).

CC(C)c1cccc(C(C)C)c1O [propofol, 2,6-diisopropylphenol]
dose recovered in urine as hydroxylated and conjugated metabolites: 88%
